# Key:
# Cryptococcus neoformans = test: Antifungal activity against Cryptococcus neoformans; type: functional
# Candida albicans = test: Antifungal activity against Candida albicans; type: functional
compound,measurement,setting,value
C[C@@H]1O[C@@H](O[C@H]2[C@H](O[C@H]3CC[C@@]4(C)[C@@H](CC[C@]5(C)[C@@H]4CC=C4[C@@H]6CC(C)(C)CC[C@]6(C(=O)O)CC[C@]45C)[C@]3(C)CO)OC[C@H](O)[C@@H]2O)[C@H](O)[C@H](O)[C@H]1O [ALPHA-HEDERIN],MIC,Cryptococcus neoformans,25 µg/mL
same,MIC,Candida albicans,6.25 µg/mL
